Assay results as given in US20060106015A1, “Novel use of benzothiazole derivatives” (priority 2002, published 2006).

Target: T1, recombinant human Itk kinase domain fused with GST (Homo sapiens, UniProt Q08881)
T1 construct: recombinant human Itk kinase domain fused with GST; GST (Glutathione S-Transferase); made in house; host or cells: High five insect cells
T1 sequence (Q08881 363-615 limits assumed): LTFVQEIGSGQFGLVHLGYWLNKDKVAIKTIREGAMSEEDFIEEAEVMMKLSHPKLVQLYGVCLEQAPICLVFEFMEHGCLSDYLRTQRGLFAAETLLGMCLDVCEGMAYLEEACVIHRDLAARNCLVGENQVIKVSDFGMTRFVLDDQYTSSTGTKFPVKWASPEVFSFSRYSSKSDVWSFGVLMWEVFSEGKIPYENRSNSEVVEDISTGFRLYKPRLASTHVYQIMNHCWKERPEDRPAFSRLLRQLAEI
Experiment: Itk LANCE TRF Assay
Format: biochemical
Conditions: 50 μM ATP, 2 μM peptide substrate, 50 minutes RT; read-out: Inhibition of Kinase Itk (IC50 μM)
Experimental: The Itk kinase assay utilized recombinant human Itk kinase domain fused with GST (Glutathione S-Transferase). The protein was expressed in High five insect cells, purified in one step on an affinity chromatography glutathione column and stored in 50 mM Tris/HCl (pH 7.6), 150 mM NaCl, 5% (w/v) mannitol, 1 mM DTT, 30% glycerol at −70° C. The kinase substrate used in the assay was a biotinylated peptide derived from the Src-optimal substrate (Nair et al, J. Med. Chem., 38: 4276, 1995; biotin-AEEEIYGEFEAKKKK).
The assay additions were as follows: Test compounds (or controls; 1 μL in 100% DMSO) were added to black 96-well flat-bottomed plates (Greiner 655076) followed by 20 μL Itk in assay buffer and the reaction was started by adding 20 μL ATP and peptide substrate in assay buffer. The assay buffer constitution during phosphorylation was: 50 mM HEPES (pH 6.8), 10 mM MgCl2, 0.015% Brij 35, 1 mM DTT, 10% glycerol, 160 ng/well Itk, 2 μM peptide substrate and 50 μM ATP. The assay was stopped after 50 minutes (RT) by adding 150 μL ice-cold Stop solution (50 mM Tris/HCl, pH 7.5, 10 mM EDTA, 0.9% NaCl and 0.1% BSA) together with LANCE reagents (2 nM PT66-Eu^3+, Wallac AD0069 and 5 μg/ml Streptavidin-APC, Wallac AD0059. Both concentrations were final in stopped assay solution). The plates were measured on a Wallac 1420 Victor 2 instrument with TRF settings after 1 h incubation, and the ratio (665 signal/615 signal)*10000 was used to calculate the inhibition values. IC50 values were determined using XLfit.

Compound | IC50 [µM]
O=C(NCCCN1CCOCC1)c1ccc2nc(-c3ccc(Cl)cc3O)sc2c1 [Example 6, 2-(4-Chloro-2-hydroxyphenyl)-N-(3-morpholin-4-ylpropyl)-1,3-benzothiazole-6-carboxamide] | 0.94
Oc1ccc(Cl)cc1-c1nc2ccc(CN3CCCC3)cc2s1 [Example 34, 4-Chloro-2-[6-(pyrrolidin-1-ylmethyl)-1,3-benzothiazol-2-yl]phenol] | 1.47
OCc1ccc2nc(-c3ccccc3O)sc2c1 [Example 44, 2-[6-(Hydroxymethyl)-1,3-benzothiazol-2-yl]phenol] | 3.04
